# Test results from patent publication US20230398133A1, “USE OF B-CELL LYMPHOMA 2 (BCL-2) INHIBITOR AND PHARMACEUTICAL COMPOSITION FOR TREATING CELLULAR SENESCENCE-RELATED SKIN DISEASES” (Xeon Biopharmaceutical Limited, priority 2020, published 2023).
# Tests used:
# [1] = tested on: imiquimod-induced psoriasis mouse model; experiment: Subcutaneous injection of ABT-737 injection in imiquimod-induced psoriasis mouse model (Example 5); format: in vivo; settings: subcutaneous injection 25 mg/kg/day
# Experimental: Effects of subcutaneous injection of 2.5 mg/ml BCL-2 inhibitor (ABT-737 injection) on imiquimod-induced psoriasis mouse model were studied.
# 16 healthy female Balb/c mice at the age of 8 weeks with a body weight of 20±2 g were taken, and depilated by 2×2 cm^2 on the back of the torso. After 24 h of depilation, it was confirmed that there was no abnormal change in depilated areas, and the mice were randomly divided into 4 groups, including: (1) a normal control group (3 mice): no special operations were conducted; (2) a psoriasis mouse model group (3 mice): psoriasis model was induced by external application of imiquimod; (3) a group of subcutaneous injection of ABT-737 injection (Example 1) to treat psoriasis mouse model (hereinafter referred to as ABT-737 subcutaneous injection group, 5 mice): psoriasis model was induced by external application of imiquimod, and subcutaneous injection of 25 mg/kg/day ABT-737 was conducted for treatment (that is, 200 μl of 2.5 mg/ml ABT-737 injection was given to the above-mentioned mice); (4) a group of subcutaneous injection of blank injection (Example 3) to treat psoriasis mouse model (hereinafter referred to as blank injection for subcutaneous injection group, 5 mice): psoriasis model was induced by external application of imiquimod, and subcutaneous injection of blank injection was conducted in an equal volume with the ABT-737 subcutaneous injection group.
# Except for the normal control group, the above-mentioned mice are all prepared with imiquimod-induced psoriasis models: 62.5 mg of 5% imiquimod (Sichuan Med Shine Pharmaceutical Co., Ltd.) was applied evenly with a cotton swab on the depilated areas on the back of the torso of the mouse, by once a day for 7 consecutive days with an interval of 24 h. After the modeling, the skin of the mouse back modeling in the psoriasis model group was taken for tissue paraffin embedding and routine section for HE staining observation. Compared with the normal control group, the model is established based on histological changes such as parakeratosis and spinous layer hypertrophy.
# Immunohistochemical staining of p16, p21 and CD4 was conducted at the same time. The ratio of p16 and p21 positive cells of skin cellular senescence-related molecules between each group was compared under a multispectral microscope, and the infiltration degree of CD4^+ T cells in the skin between each group was compared (FIG. 3). • (3) In addition, the skin specimens of the back modeling sites of the torso of a total of 10 mice in the ABT-737 subcutaneous injection group and the blank injection for subcutaneous injection group were taken, added to an RNA protection solution, cut and ground to prepare a single cell suspension. […]
# [2] = tested on: imiquimod-induced psoriasis mouse model; experiment: External application of ABT-737 gel and intraperitoneal injection of ABT-737 injection in imiquimod-induced psoriasis mouse model (Example 6); format: in vivo; settings: intraperitoneal injection 25 mg/kg/day
# Experimental: Effects of external application of BCL-2 inhibitor ABT-737 gel (Example 2) and intraperitoneal injection of 2.5 mg/ml BCL-2 inhibitor ABT-737 injection (Example 1) on imiquimod-induced psoriasis mouse model was studied.
# 19 healthy female Balb/c mice at the age of 8 weeks with a body weight of 20±2 g were taken, and depilated by 2×2 cm^2 on the back of the torso. After 24 h of depilation, it was confirmed that there was no abnormal change in depilated areas, and the mice were randomly divided into 5 groups, including: (1) a psoriasis mouse model group (3 mice): psoriasis model was induced by external application of imiquimod; (2) a group external application of ABT-737 gel (Example 2) for treating psoriasis mouse model (hereinafter referred to as ABT-737 gel treatment group, 5 mice): psoriasis model was induced by external application of imiquimod, and each mouse was treated with ABT-737 gel 0.5 g/day for external application; (3) a group of external application of blank gel (Example 4) to treat the psoriasis mouse model (hereinafter referred to as the blank gel control group, 5 mice): the psoriasis model was induced by external application of imiquimod, and each mouse was treated with blank gel the same amount as the ABT-737 treatment group by external application; (4) a group of intraperitoneal injection of BCL-2 inhibitor ABT-737 injection (Example 1; hereinafter referred to as ABT-737 intraperitoneal injection treatment group, 3 mice): psoriasis model was induced by external application of imiquimod, and each mouse was treated by intraperitoneal injection of 25 mg/kg/day of ABT-737 (that is, 200 μl of 2.5 mg/ml ABT-737 injection was given to the above-mentioned mice); (5) a group of blank injection for intraperitoneal injection (Example 3; hereinafter referred to as blank injection for intraperitoneal injection group, 3 mice): psoriasis model was induced by external application of imiquimod, and each mouse was treated by intraperitoneal injection of 200 μl of blank injection. […]
# [3] = vs blank injection for subcutaneous injection group, FIG. 3
smiles,measurement,setting,value
CN(C)CC[C@H](CSc1ccccc1)Nc1ccc(S(=O)(=O)NC(=O)c2ccc(N3CCN(Cc4ccccc4-c4ccc(Cl)cc4)CC3)cc2)cc1[N+](=O)[O-] [ABT-737],dermal inflammatory cells (HE staining),[1]; FIG. 2,significantly reduced
same,downward extension of epidermal protrusions on the back skin lesions (HE staining),[1]; FIG. 2,significantly reduced
same,spinous cell layer (HE staining),[1]; FIG. 2,thinned
same,systemic damage,[1]; conclusion from spleen and DLN T cell subsets,without any systemic damage
same,"appearance of skin at the modeling site: skin swelling, skin thickening and scales","[1]; vs blank injection for subcutaneous injection group and psoriasis model group, FIG. 1",significant improvement
same,proportion of CD4+ cells infiltrated by dermal inflammation (immunohistochemistry),[1]; [3],significantly reduced
same,proportion of senescent cells staining positive in p16 and p21 in paraffin sections of skin lesions (immunohistochemistry),[1]; [3],significantly reduced
same,"mRNA expression levels of genes corresponding to P16, P21, BCL-2, INF-7 and IL17A in skin (real-time quantitative PCR)","[1]; vs blank injection for subcutaneous injection group, FIG. 4",decrease significantly
same,improvement of the skin lesions of the mouse model (skin appearance),[2]; FIG. 6,"better than the psoriasis model group, the blank gel control group and the blank injection for intraperitoneal injection group, but is slightly inferior to the ABT-737 gel treatment group"
same,improvement of the skin lesions of the mouse model (HE pathological sections),[2]; FIG. 7,"better than the psoriasis model group, the blank gel control group and the blank injection for intraperitoneal injection group, but is slightly inferior to the ABT-737 gel treatment group"
same,"reduction of p16, p21, CD4 and BCL2 positive cells (immunohistochemistry)",[2]; FIG. 8,"better than the blank gel control group and the blank injection for intraperitoneal injection group, but is slightly inferior to the ABT-737 gel treatment group"
